Values joined by “and” are separate entries in the source; they are usually repeats but may differ in a detail not shown here. Equal entries are not always repeated.
Assays:
Assay type in all cases: cell-based, human
MCF-7/Ac1 cells [1] = assay: Cell cycle analysis by flow cytometry (PI)
Procedure: Cell cycle analysis. MCF-7/Ac1 cells were cultured in estrogen-deprived media with or without 25 nM 4-androstenedione, and treated with different concentrations of aromatase inhibitors. Untreated and drug treated cells were collected 72 hours later for flow cytometry and lysates were prepared for western blot and kinase assays.
Flow cytometry analysis. Cells were pelleted and resuspended in 1.5 ml of PBS, then fixed in 3.5 ml of 95% ethanol overnight at −20° C. After being washed, the pellets were resuspended in a solution of PBS containing 10 μg/ml propidium iodide, 20 μg/ml RNase A, 0.5% Tween 20, and 0.5% BSA and incubated at 37° C. for 30 min. The profiles of cells in the G0-G1, S, and G2-M phases of the cell cycle were analyzed at the M. D. Anderson Cancer Center Cytometry Core Facility on a FACS Caliber machine equipped with Cellquest or ModFit software.
FIGS. 22A-22C show the effect of aromatase inhibitor treatment on proliferative response and cell cycle distribution of MCF-7/Ac1 cells. Cells were cultured in IMEM with 10% charcoal-stripped serum medium (CSSM) without phenol red and with 600 μg/ml of G418 for 4 days before plating. Cells (100,000) were seeded in 100 mm dishes and, 24 hrs later, were exposed for 3 days to the specific treatment. […] Cell growth is expressed as the percentage of the cells compared with the control cells (25 nM AD treated cells, 575,000 cells at day 3). Columns, mean of two to three experiments, each in triplicates; bars, S.D. *, P<0.05, when compared to cells only treated with 25 nM AD; n.s, not significant. CSSM, untreated cells cultured in charcoal-stripped serum medium without phenol red and with 600 μg/ml of G418.

MCF-7/Ac1 cells [2] = assay: Western blot of CDK2, phospho-CDK2, cyclin E, pRb; conditions: 25 nM AD
Procedure: FIG. 28. Effect of increasing concentrations of letrozole in the presence of 25 nM AD on CDK2 kinase activity, activated CDK2 and Rb phosphorylation of MCF7/Ac1 human breast cancer cells. MCF-7/Ac1 cells were treated with the indicated concentrations of letrozole and AD for 3 days. CDK2 kinase assays were performed by immunoprecipitating equal amounts of cell lysate (250 μg) with monoclonal antibodies to CDK2 (D12, sc-6248) coupled to protein G beads, using histone H1 as substrate. […] The same cell lysates were subjected to western blot analysis (50 μg of protein) with the indicated antibodies.
(§1) Western blot analysis. Cell lysates were prepared and subjected to western blot analysis as described previously (Akli et al., 2004). Briefly, 50 μg of protein were subjected to electrophoresis on SDS-PAGE and transferred to Immobilon P overnight at 4° C. at […] constant voltage. The blots were blocked overnight at 4° C. in BLOTTO [5% nonfat dried milk in 20 mM Tris, 137 mM NaCl, and 0.05% Tween (pH 7.6)]. After being washed, the blots were incubated in primary antibodies for 3 h. Primary antibodies used were cyclin E (HE-12; Santa Cruz Biotechnology), p21 (0P64; Oncogene Research Products, Boston, Mass.), p27 (K25020; BD Biosciences-Transduction Laboratories, Lexington, Ky.), cyclin-dependent kinase 2 (CDK2; Transduction Laboratories), and actin (Chemicon International, Inc., Temecula, Calif.). Blots were then incubated with goat anti-mouse or anti-rabbit immunoglobulin-horseradish peroxidase conjugate at a dilution of 1:5000 in BLOTTO for 1 h and finally washed and developed by using the Renaissance chemiluminescence system as directed by the manufacturer (Perkin-Elmer Life Sciences, Inc., Boston, Mass.). Western blots were quantitated by densitometric analysis using IPLab Gel software (Scientific Image Processing, Vienna, Va.). Densitometric values of actin were used to standardize for equal protein loading. These values were introduced into the software Graph-Pad Prism version 4.0 (GraphPad Software, Inc., San Diego, Calif.) for statistical analysis.
(§2) MCF-7/Ac1 cells were treated with the indicated concentrations of letrozole and AD for 3 days. Cyclin E kinase assays were performed by immunoprecipitating equal amounts of cell lysate (250 μg) with monoclonal antibodies to cyclin E coupled to protein A beads, using histone H1 as substrate. […] The same cell lysates were subjected to western blot analysis (50 μg of protein) with the indicated antibodies. […] The same cell lysates were first immunoprecipitated with cyclin E followed by western blot for p21 and p27. […] The same cell lysates were first immunoprecipitated with CDK2 followed by western blot for p21 and p27. The levels of proteins were measured by densitometric scanning of the corresponding bands and normalized using actin values. The values indicated at the bottom were compared to the values obtained with untreated cells.

MCF-7/Ac1 cells [3] = assay: Cell growth by cell counting, AD-stimulated cells; conditions: 3 days
Procedure: Cell growth. The effects of the aromatase inhibitors on MCF7/Ac1 cells growth were examined by counting the cells at the indicated time. The cells were detached from their flask using trypsin and counted using a Coulter counter machine.
To examine the effects of the three different aromatase inhibitors on the proliferation of MCF-7/Ac1 cells, cells were cultured in estrogen deprived, charcoal stripped serum media (CSSM). The response of the cells to 25 nM of androstenedione (AD) alone or AD plus one of the 3 aromatase inhibitors letrozole (FIG. 22A), anastrozole (FIG. 22B), and exemestane (FIG. 22C) was measured after 3 days of treatment. Cells maintained in CSSM were used as controls.
FIGS. 22A-22C show the effect of aromatase inhibitor treatment on proliferative response and cell cycle distribution of MCF-7/Ac1 cells. Cells were cultured in IMEM with 10% charcoal-stripped serum medium (CSSM) without phenol red and with 600 μg/ml of G418 for 4 days before plating. Cells (100,000) were seeded in 100 mm dishes and, 24 hrs later, were exposed for 3 days to the specific treatment. […] CSSM, untreated cells cultured in charcoal-stripped serum medium without phenol red and with 600 μg/ml of G418.

MCF-7/Ac1 cells [4] = assay: Sequential AD/letrozole then roscovitine treatment: cell number and CDK2 western blot; conditions: additional two days in medium or medium plus DMSO
Procedure: Medium alone or medium plus DMSO were used as controls. A schematic of the treatment strategy is depicted in FIG. 25A. At the conclusion of the treatment, cells were enumerated and subjected to western blot analysis with CDK2 (total) and phospho-CDK2 antibodies.
Cells were then infected with the indicated adenoviruses (at 4000 m.o.i.) 24 hours before drug treatment.

[5] = tested on: CDK2 protein in MCF-7/Ac1 cells; assay: Western blot of CDK2 protein levels in adenovirus-infected cells; conditions: 25 nM AD, uninfected and LacZ infected cells
Procedure: as §1
MCF-7/Ac1 cells were cultured in IMEM with 10% charcoal-stripped serum medium (CSSM) without phenol red and with 600 μg/ml of G418 for 4 days before plating. […] Cells were then infected with the indicated adenoviruses (at 4000 m.o.i.) 24 hours before drug treatment.

[6] = tested on: cyclin E and CDK2 complexes in MCF-7/Ac1 cells; assay: Immunoprecipitation of cyclin E or CDK2 followed by western blot for p21 and p27; conditions: 25 nM AD
Procedure: (§3) Immunoprecipitation and Immunoblotting. Two hundred fifty μg of cell extracts were used per immunoprecipitation with polyclonal antibody to cyclin E or polyclonal antibody to CDK2, coupled to protein A beads. After being washed, the immunoprecipitates were subjected to electrophoresis in 13% gels, transferred to Immobolin P, blocked, and incubated with the indicated antibodies as already described.
as §2

[7] = tested on: cyclin E-associated kinase activity in MCF-7/Ac1 cells; assay: Cyclin E-associated kinase assay (histone H1); conditions: 25 nM AD, 3 days
Procedure: as §3, §2

BT474 cells = assay: High throughput clonogenic assay, trastuzumab and roscovitine; conditions: agents alone or in combination
Procedure: (§4) FIGS. 27A-27B. […] FIG. 27B. […] Isobologram analysis and graphs were obtained using CalcuSyn software, which performs drug dose—effect calculation using the median effect method. Experiments were performed in triplicate and representative data are shown.

SKBr3 cells = assay: as above; conditions: agents alone or in combination
Procedure: as §4

MCF-7/Ac1 cells [8] = assay: Cell number of adenovirus-infected cells (LacZ, cyclin EL, T1, T2); conditions: 20 uM, uninfected, LacZ or cyclin E-T1 infected cells
Excerpt: LMW cyclin E, but not full-length cyclin E, overexpressing MCF-7/Ac1 cells partially override the letrozole inhibition of AD-induced S-phase entry and AD-induced CDK2 protein levels. Since overexpression of LMW cyclin E deregulates the G1 to S transition, the inventors interrogated the role of full-length and LMW cyclin E in letrozole response. To this end, the inventors examined the sensitivity of cyclin E overexpressing MCF-7/Ac1 cells to the growth inhibitory effect of letrozole using adenoviruses to overexpress full-length and LMW cyclin E (FIGS. 24A-24D). MCF-7/Ac1 cells were cultured in charcoal stripped serum media (CSSM) for 4 days before infecting them with 4000 m.o.i. of either LacZ, full-length cyclin E (cyclin EL) or LMW cyclin E (cyclin E-T1 and cyclin E-T2). Twenty-four hours later, cells were left either untreated, treated with 25 nM AD alone, or treated with 25 nM AD plus 1 μM letrozole for an additional 3 days (FIGS. 24A-24B). Following the treatment, cells were enumerated or subjected to flow cytometry analysis.
MCF-7/Ac1 cells were cultured in IMEM with 10% charcoal-stripped serum medium (CSSM) without phenol red and with 600 μg/ml of G418 for 4 days before plating. Triplicate wells of 6-well plates were then infected with the indicated adenoviruses (at 4000 m.o.i.) 24 hours before drug treatment. Cells were then left untreated (E2W, estrogen withdrawal) or treated with 25 nM AD (AD) or treated with 25 nM AD and 1 μM letrozole (AD+Let) and collected 3 days later for cell number. Cell growth is expressed as the percentage of the cells compared with the control cells (25 nM AD treated cells). […] MCF-7/Ac1 cells were treated as described in A, and collected for flow cytometry analysis. Histograms represent the S-phase fraction expressed as the percentage of the cells in S-phase compared with the control cells (25 nM AD treated cells). […] The same cell lysates as in A and B were subjected to western blot analysis (50 μg of protein) with cyclin E and CDK2 antibodies. The bar graph represents the densitometric values of the phosphorylated CDK2 bands. […] Left, MCF-7/Ac1 cells were cultured in IMEM with 10% charcoal-stripped serum medium (CSSM) without phenol red and with 600 μg/ml of G418 for 4 days before plating. Cells were then infected with the indicated adenoviruses (at 4000 m.o.i.) 24 hours before drug treatment. Cells were then treated with 25 nM AD and 1 μM letrozole and collected 3 days later for cell number. […] Columns, mean of two to three experiments, each in triplicates; bars, S.D.
To directly address this question, MCF-7/Ac1 cells were cultured in charcoal stripped serum media (CSSM) for 4 days before adding medium with no virus or with 4000 m.o.i. of either LacZ, or LMW cyclin E (cyclin E-T1) adenoviruses. 24 hours later, cells were left untreated, treated with 25 nM AD alone, or treated with 25 nM AD plus 1 μM letrozole for 3 days (FIG. 24D). The AD-induced growth of MCF-7/Ac1 cells was inhibited by letrozole by 51% in uninfected cells and by 58% in LacZ infected cells while the growth of cyclin E-T1 infected cells was inhibited by only 20% (FIG. 24D, left).

In the case of `C[C@]12CCC(=O)C=C1CC[C@@H]1[C@@H]2CC[C@]2(C)C(=O)CC[C@@H]12` [AD, androstenedione], the “fraction of cells in S phase” value (MCF-7/Ac1 cells [1]; 25 nM AD alone) is reported as 40.3+/−1.9%, the “increase of fraction of cells in S phase compared to vehicle treated cells” value (MCF-7/Ac1 cells [1]; 25 nM AD alone) is reported as 7.3 fold and the “cells in G0-G1” value (MCF-7/Ac1 cells [1]; 25 nM AD alone (baseline of exemestane comparison)) is reported as 35.1+/−0.8%. For the same compound, the “cyclin E protein levels” value (MCF-7/Ac1 cells [2]) was “not affected”, the “increase in CDK2 protein levels compared to vehicle treated cells” value (MCF-7/Ac1 cells [2]; 3 days) was 2.3 fold and the “increase in phospho-CDK2” value (MCF-7/Ac1 cells [2]; phospho-specific CDK2 antibody) was 3.5 fold. The “increase in cell number compared to control cells (CSSM)” value (MCF-7/Ac1 cells [3]; 25 nM AD) was 3.9+/−1.3 fold, the “increase in AD-induced proliferation” value (MCF-7/Ac1 cells [4]; LMW cyclin E overexpressing cells) was 2.3 fold and 2.8 fold and the “increase in AD-induced proliferation” value (MCF-7/Ac1 cells [4]; LacZ infected cells) was 3.5 fold. For the same compound, the “increase in AD-induced proliferation” value (MCF-7/Ac1 cells [4]; uninfected cells) was 4 fold, the “increase in total CDK2 protein levels” value [5] was 1.8 fold and the “increase in p21 binding to CDK2” value [6] was 1.5 fold. For the same compound, the “p21 binding to cyclin E” value [6] was “did not affect” and the “increase in cyclin E-associated kinase activity compared to vehicle treated cells” value [7] was 1.6 fold.
For `CC(C)(C#N)c1cc(Cn2cncn2)cc(C(C)(C)C#N)c1` [anastrozole], the “effect on cell cycle distribution” value (MCF-7/Ac1 cells [1]; 10 μM, with 25 nM AD) was “more subtle effect” and the “inhibition of AD-induced growth” value (MCF-7/Ac1 cells [3]; any of the concentrations tested, with 25 nM AD) was “did not inhibit”.
With `C=C1C[C@@H]2[C@H](CC[C@]3(C)C(=O)CC[C@@H]23)[C@@]2(C)C=CC(=O)C=C12` [exemestane] the “cells in G0-G1” value (MCF-7/Ac1 cells [1]; 10 μM, with 25 nM AD) was 49.2+/−0.7%, the “cells in S phase” value (MCF-7/Ac1 cells [1]; 10 μM, with 25 nM AD) was 31.7+/−2.5% and the inhibition at 1 µM (MCF-7/Ac1 cells [3]; Homo sapiens, MCF7, 72 h, 1 μM, with 25 nM AD, read-out: inhibition of AD-induced growth) was 25%. It also gave an inhibition at 10 µM (MCF-7/Ac1 cells [3]; Homo sapiens, MCF7, 72 h, 10 μM, with 25 nM AD, read-out: inhibition of AD-induced growth) of 42%.
In the case of `CC[C@H](CO)Nc1nc(NCc2ccccc2)c2ncn(C(C)C)c2n1` [roscovitine], the cell viability (BT474 cells) is reported as “dose-dependent reduction in cell viability”, the cell viability (SKBr3 cells) is reported as “dose-dependent reduction in cell viability” and the “inhibition of AD-induced increase in cell number” value (MCF-7/Ac1 cells [8]) is reported as “completely inhibited”.

— patent US20120114636A1, “LOW MOLECULAR WEIGHT CYCLIN E (LMW-E) AS A BIOMARKER FOR PERSONALIZATION OF CANCER THERAPIES” (The Board of Regents of the University of Texas System, priority 2009, published 2012)
